From US20080025966A1, “Methods And Compositions For The Treatment Of Gastrointestinal disorders” (priority 2004, published 2008)
One block for each compound: values may come before it. No end group written: not given here.

Assays:
[1] = system: chymotrypsin; details: cited from earlier work
[2] = biological target: T1, chymotrypsin (Bos taurus, UniProt P00766); experiment: Guanylin degradation assay (chymotrypsin digestion) read out in the T84 cGMP assay; type: biochemical, bovine; details: T84 cells, FIG. 1
T1 construct: purchased Sigma C6423
Procedure: Since guanylin is susceptible to digestion by chymotrypsin, chymotrypsin activity can be assayed based on guanylin cleavage. […] From this stock, six (6) 500 μl aliquots were prepared in 2 ml Eppendorf tubes and labeled “Control”, “T0”, “T15”, “T30”, “T60”, and “T180”, with “T_” representing timepoints, in minutes. 5 μl of a 10 mM chymostatin (Sigma, C7268) stock (5 mg of chymostatin resuspended in 824 μl of DMSO) was added to the “Control” samples and all samples were incubated for 5 minutes at 30° C. Chymostatin inhibits chymotrypsin activity and this sample served as a negative control. Next, 20 μl of a chymotrypsin (Sigma, C6423) enzyme solution (0.01 mg/ml bovine chymotrypsin enzyme in 1 mM HCl, 2 mM Calcium Chloride) were added to the samples and mixed by inversion. Samples are incubated at 30° C. […] Determination of sensitivity to digestion by chymotrypsin was determined by LCMS analysis and by in vitro activity in the T84 cGMP assays described below.
The ability of guanylin to activate the intestinal GC-C receptor was assessed in an assay employing the T84 human colon carcinoma cell line (American Type Culture Collection (Bethesda, Md.). For the assays cells were grown to confluency in 24-well culture plates with a 1:1 mixture of Ham's F12 medium and Dulbecco's modified Eagle's medium (DMEM), supplemented with 5% fetal calf serum and were used at between passages 54 and 60. […]

[3] = system: guanylin-induced intestinal fluid secretion; details: suckling mouse model; chymostatin given with guanylin; cited from earlier work
[4] = system: human HT-29/B6 cells; details: cited from earlier work

Compound: CC(C)C[C@H](NC(=O)[C@@H](NC(=O)N[C@@H](Cc1ccccc1)C(=O)O)C1CCNC(=N)N1)C(=O)N[C@H](C=O)Cc1ccccc1 (stereo partly shown) [chymostatin]
- chymotrypsin-mediated inactivation of guanylin [1]: can be prevented
- guanylin stimulated cGMP activity with chymotrypsin inhibitor present ([2]; chymostatin added before chymotrypsin digestion of guanylin): retained
- guanylin-induced intestinal fluid secretion [3]: required in order to observe guanylin-induced intestinal fluid secretion

Compound: Cc1c(O)cccc1C(=O)N[C@@H](CSc1ccccc1)[C@H](O)CN1C[C@H]2CCCC[C@H]2C[C@H]1C(=O)NC(C)(C)C [nelfinavir, Nelfinavir]
- effect on the epithelial barrier [4]: impair the epithelial barrier

Compound: CC(C)(C)NC(=O)[C@@H]1C[C@@H]2CCCC[C@@H]2CN1C[C@@H](O)[C@H](Cc1ccccc1)NC(=O)[C@H](CC(N)=O)NC(=O)c1ccc2ccccc2n1 [saquinavir, Saquinavir]
- effect on the epithelial barrier [4]: impair the epithelial barrier

Compound: CC(C)c1nc(CN(C)C(=O)N[C@H](C(=O)N[C@@H](Cc2ccccc2)C[C@H](O)[C@H](Cc2ccccc2)NC(=O)OCc2cncs2)C(C)C)cs1 [ritonavir]
- effect on the epithelial barrier [4]: impair the epithelial barrier

- guanylin stimulated cGMP activity ([2]; guanylin digested with chymotrypsin at 30° C., timepoints 0-180 min, no chymostatin): decreases over time
Compound: guanylin: intestinal peptide of 15 amino acids, agonist of the guanylate cyclase (GC-C) receptor; Sigma G-116 (PGTCEICAYAACTGC; ends and bridges not checked; cysteine pairing not given here; UniProt Q02747 101-115, looked up)
